Assay results as given in ChEMBL document CHEMBL3046594, “Bioactive metabolites from an endophytic fungus of Aspergillus species isolated from seeds of Gloriosa superba Linn” (Med Chem Res, 2013).
Calls of active or inactive are those of the source. No cut-off for these calls is given here.

Experiments:
[1] = test system: Candida albicans; experiment: Antifungal activity against Candida albicans MTCC 3018 assessed as growth inhibition at 2 mg/mL after 48 hr by disk diffusion method; assay type: functional
[2] = test system: MCF7; experiment: Cytotoxicity against Homo sapiens (human) MCF7 cells assessed as growth inhibition at 10 to 100 uM after 48 hr by SRB assay; assay type: functional, cell-based
[3] = test system: Pseudomonas aeruginosa; experiment: Antibacterial activity against Pseudomonas aeruginosa MTCC 2642 assessed as growth inhibition at 2 mg/mL after 24 hr by disk diffusion method; assay type: functional
[4] = test system: THP-1; experiment: Cytotoxicity against Homo sapiens (human) THP1 cells assessed as growth inhibition at 10 to 100 uM after 48 hr by SRB assay; assay type: functional, cell-based
[5] = test system: Salmonella typhi; experiment: Antibacterial activity against Salmonella enterica subsp. enterica serovar Typhi MTCC 1251 assessed as growth inhibition at 2 mg/mL after 24 hr by disk diffusion method; assay type: functional, organism-based
[6] = test system: Saccharomyces cerevisiae; experiment: Antifungal activity against Saccharomyces cerevisiae MTCC 172 assessed as growth inhibition at 2 mg/mL after 48 hr by disk diffusion method; assay type: functional
[7] = test system: Bacillus subtilis; experiment: Antibacterial activity against Bacillus subtilis MTCC 2451 assessed as growth inhibition at 2 mg/mL after 24 hr by disk diffusion method; assay type: functional
[8] = test system: Goffeauzyma gastrica; experiment: Antifungal activity against Cryptococcus gastricus MTCC 1715 assessed as growth inhibition at 2 mg/mL after 48 hr by disk diffusion method; assay type: functional
[9] = test system: Staphylococcus aureus; experiment: Antibacterial activity against Staphylococcus aureus MTCC 96 assessed as growth inhibition at 2 mg/mL after 24 hr by disk diffusion method; assay type: functional
[10] = test system: Escherichia coli; experiment: Antibacterial activity against Escherichia coli MTCC 82 assessed as growth inhibition at 2 mg/mL after 24 hr by disk diffusion method; assay type: functional
[11] = test system: A549; experiment: Cytotoxicity against Homo sapiens (human) A549 cells assessed as growth inhibition at 20 uM after 48 hr by SRB assay; assay type: functional; conditions: A549, 48 h, read-out: GI
[12] = test system: HEp-2; experiment: Cytotoxicity against Homo sapiens (human) Hep2 cells assessed as growth inhibition at 20 uM after 48 hr by SRB assay; assay type: functional; conditions: HEp-2, 48 h, read-out: GI
[13] = test system: CV-1; experiment: Cytotoxicity against Chlorocebus aethiops (African green monkey) CV1 cells assessed as growth inhibition at 20 uM after 48 hr by SRB assay; assay type: functional; conditions: CV-1, 48 h, read-out: GI
[14] = test system: THP-1; experiment: Cytotoxicity against Homo sapiens (human) THP1 cells assessed as growth inhibition at 20 uM after 48 hr by SRB assay; assay type: functional; conditions: THP-1, 48 h, read-out: GI
[15] = test system: MCF7; experiment: Cytotoxicity against Homo sapiens (human) MCF7 cells assessed as growth inhibition at 1 uM after 48 hr by SRB assay; assay type: functional; conditions: MCF7, 48 h, read-out: GI
[16] = test system: OVCAR-5; experiment: Cytotoxicity against Homo sapiens (human) OVCAR5 cells assessed as growth inhibition at 1 uM after 48 hr by SRB assay; assay type: functional; conditions: OVCAR-5, 48 h, read-out: GI

Compound | growth inhibition (GI) [1] | growth inhibition (GI) [5] | growth inhibition (GI) [6] | growth inhibition (GI) [7] | growth inhibition (GI) [8] | growth inhibition (GI) [10] | further results
COC(=O)c1ccc(O)cc1C(=O)OC | inactive | inactive | inactive | inactive | inactive | inactive | growth inhibition (GI) [2]: Active; growth inhibition (GI) [3]: inactive; growth inhibition (GI) [4]: Active; growth inhibition (GI) [9]: inactive
O=c1[nH]cc(F)c(=O)[nH]1 [FLUOROURACIL] | – | – | – | – | – | – | inhibition of growth at 20 µM [11]: 79%; inhibition of growth at 20 µM [12]: 87%; inhibition of growth at 20 µM [13]: 43%; inhibition of growth at 20 µM [14]: 79%
CC(C)[C@@H](C)/C=C/[C@@H](C)[C@H]1CC[C@H]2C3=CC=C4C[C@@H](O)CC[C@]4(C)[C@H]3CC[C@]12C [ERGOSTEROL] | inactive | inactive | inactive | inactive | inactive | inactive | zone of inhibition at 2000 µg/mL ([3]; MTCC 2642, 24 h, read-out: DIZ): 8.7 mm; zone of inhibition at 2000 µg/mL ([9]; MTCC 96, 24 h, read-out: DIZ): 11.2 mm
CO[C@@]12[C@H](COC(N)=O)C3=C(C(=O)C(C)=C(N)C3=O)N1C[C@@H]1N[C@@H]12 [MITOMYCIN] | – | – | – | – | – | – | inhibition of growth at 1 µM [15]: 82%; inhibition of growth at 1 µM [16]: 71%
